According to US20140073700A1, “[…] ACID DERIVATIVES AND METHODS OF USE THEREOF” (AbbVie Inc., priority 2012, published 2014):

System: IFNγ-Induced NO Production in RAW 264.7 cells
Assay: Nitric Oxide Suppression Assay (suppression of IFNγ-induced NO production)
Type: cell-based
Settings: RAW264.7; RAW 264.7 mouse macrophage cells, 20 ng/mL interferon gamma, Griess detection; single curve fit to mean data of n=2-3
Procedure: RAW 264.7, a mouse macrophage cell line, was obtained from American Type Culture Collection (Manassas Va.) and maintained in the log phase of growth in Dulbecco's Modified Eagle's Medium (DMEM), 10% heat inactivated fetal calf serum and 100 units/mL antibiotic-antimycotic (AA). Cells were cultured and maintained in a humidified incubator at 37° C. under 5% CO2 and 95% air. Cells were sub-cultured every 3 days by scraping and were not used beyond passage 20. All cell culture supplies were obtained from Life Technologies (Grand Island, N.Y.).
RAW 264.7 cells were plated 1 day in advance of experiment at a concentration of 80,000 cells/well onto CellBIND® 96 well plates (Corning, N.Y.) in a total volume of 100 μL. The next day, pre-treat cells with compounds (from 3 μM to 0.3 nM serially diluted in a 10 point curve) from a 10× stock by adding 10 μL per well in complete DMEM media containing 10% fetal calf serum. The plates were centrifuged for 3 minutes at 400×g at room temperature followed by 2 hour incubation at 37° C. The cells were then incubated overnight at 37° C. with 10 μL of the insult, interferon gamma (R&D Systems, Minneapolis, Minn.), from a 10× stock for a final concentration of 20 ng/mL. The plates were centrifuged for 3 minutes at 400×g at room temperature followed by 18 hour incubation at 37° C. The following day, transfer 50 μL cell culture supernatant from each well into a clear bottom 96 well plate and follow the instructions from Promega's Griess Detection Kit #G2930 (Madison, Wis.) which involves the addition of 50 μL of the provided sulfanilamide solution for a 5-10 minute incubation at room temperature. Next add 50 μL of the provided N-1-napthylethylenediamine dihydrochloride (NED) solution for a 5-10 minute incubation at room temperature and protected from light. If any air bubbles were introduced into the well, the plates need to be centrifuged for 5 minutes at 400×g at room temperature to avoid interference with absorbance readings. The plates were read for absorbance within 30 minutes with a filter between 520 nm and 550 nm.
For the ability of compounds to suppress the increase in nitric oxide release, the percent maximal intensity of nitric oxide detected in each well was normalized to that induced by the peak value for 20 ng/mL of interferon gamma alone and plotted against the compound concentration to calculate IC50 values and to control for plate-to-plate variability. Concentration-response data were analyzed using GraphPad Prism (San Diego, Calif.); the IC50 values were derived from a single curve fit to the mean data of n=2-3, in duplicates.
All compounds were dissolved in dimethyl sulfoxide at 10 mM stock solutions and tested at a concentration that the dimethyl sulfoxide levels never exceeded 1%.

Q: `COCCNC(=O)[C@@]1(C)CC[C@]2(C)CC[C@@]3(C)[C@]4(C)CC[C@H]5C(C)(C)C(=O)C(C#N)=C[C@]5(C)C4=CC(=O)[C@]3(O)[C@@H]2C1` [Example 16, (2S,4aS,6aS,6bR,8aR,12aS,14aS,14bR)-11-cyano-14a-hydroxy-N-(2-methoxyethyl)-2,4a,6a,6b,9,9,12a-heptamethyl-10,14-dioxo-1,2,3,4,4a,5,6,6a,6b,7,8,8a,9,10,12a,14,14a,14b-octadecahydropicene-2-carboxamide] was tested. Which IC50 did it give?
A: The IC50 was 8.6 nM.

Q: For `CC(C)CCNC(=O)[C@@]1(C)CC[C@]2(C)CC[C@@]3(C)[C@]4(C)CC[C@H]5C(C)(C)C(=O)C(C#N)=C[C@]5(C)C4=CC(=O)[C@]3(O)[C@@H]2C1` [Example 17, (2S,4aS,6aS,6bR,8aR,12aS,14aS,14bR)-11-cyano-14a-hydroxy-2,4a,6a,6b,9,9,12a-heptamethyl-N-(3-methylbutyl)-10,14-dioxo-1,2,3,4,4a,5,6,6a,6b,7,8,8a,9,10,12a,14,14a,14b-octadecahydropicene-2-carboxamide], which IC50 is on record?
A: The IC50 was 24 nM.

Q: `CC1(C)C(=O)C(C#N)=C[C@]2(C)C3=CC(=O)[C@]4(O)[C@@H]5C[C@@](C)(C(=O)NC6CCOCC6)CC[C@]5(C)CC[C@@]4(C)[C@]3(C)CC[C@@H]12` [Example 18, (2S,4aS,6aS,6bR,8aR,12aS,14aS,14bR)-11-cyano-14a-hydroxy-2,4a,6a,6b,9,9,12a-heptamethyl-10,14-dioxo-N-(tetrahydro-2H-pyran-4-yl)-1,2,3,4,4a,5,6,6a,6b,7,8,8a,9,10,12a,14,14a,14b-octadecahydropicene-2-carboxamide] was tested. Which IC50 did it give?
A: The IC50 was 17.1 nM.

Q: Which IC50 does the source give for `CC(O)CNC(=O)[C@@]1(C)CC[C@]2(C)CC[C@@]3(C)[C@]4(C)CC[C@H]5C(C)(C)C(=O)C(C#N)=C[C@]5(C)C4=CC(=O)[C@]3(O)[C@@H]2C1` (stereo partly drawn) [Example 19, (2S,4aS,6aS,6bR,8aR,12aS,14aS,14bR)-11-cyano-14a-hydroxy-N-(2-hydroxypropyl)-2,4a,6a,6b,9,9,12a-heptamethyl-10,14-dioxo-1,2,3,4,4a,5,6,6a,6b,7,8,8a,9,10,12a,14,14a,14b-octadecahydropicene-2-carboxamide] here?
A: The IC50 was 67.9 nM.

Q: How did the IC50 turn out when `C[C@H](NC(=O)[C@@]1(C)CC[C@]2(C)CC[C@@]3(C)[C@]4(C)CC[C@H]5C(C)(C)C(=O)C(C#N)=C[C@]5(C)C4=CC(=O)[C@]3(O)[C@@H]2C1)c1ccccc1` [Example 20, (2S,4aS,6aS,6bR,8aR,12aS,14aS,14bR)-11-cyano-14a-hydroxy-2,4a,6a,6b,9,9,12a-heptamethyl-10,14-dioxo-N-[(1S)-1-phenylethyl]-1,2,3,4,4a,5,6,6a,6b,7,8,8a,9,10,12a,14,14a,14b-octadecahydropicene-2-carboxamide] was run?
A: Its IC50 is 38.6 nM.

Q: For `CC1(C)C(=O)C(C#N)=C[C@]2(C)C3=CC(=O)[C@]4(O)[C@@H]5C[C@@](C)(C(=O)NC6CCCCC6)CC[C@]5(C)CC[C@@]4(C)[C@]3(C)CC[C@@H]12` [Example 21, (2S,4aS,6aS,6bR,8aR,12aS,14aS,14bR)-11-cyano-N-cyclohexyl-14a-hydroxy-2,4a,6a,6b,9,9,12a-heptamethyl-10,14-dioxo-1,2,3,4,4a,5,6,6a,6b,7,8,8a,9,10,12a,14,14a,14b-octadecahydropicene-2-carboxamide], which IC50 is on record?
A: Its IC50 is 9.7 nM.

Q: For `CC1(C)C(=O)C(C#N)=C[C@]2(C)C3=CC(=O)[C@]4(O)[C@@H]5C[C@@](C)(C(=O)NCc6ccccc6)CC[C@]5(C)CC[C@@]4(C)[C@]3(C)CC[C@@H]12` [Example 22, (2S,4aS,6aS,6bR,8aR,12aS,14aS,14bR)—N-benzyl-11-cyano-14a-hydroxy-2,4a,6a,6b,9,9,12a-heptamethyl-10,14-dioxo-1,2,3,4,4a,5,6,6a,6b,7,8,8a,9,10,12a,14,14a,14b-octadecahydropicene-2-carboxamide], which IC50 is on record?
A: The IC50 was 27.1 nM.

Q: For `COCC(COC)NC(=O)[C@@]1(C)CC[C@]2(C)CC[C@@]3(C)[C@]4(C)CC[C@H]5C(C)(C)C(=O)C(C#N)=C[C@]5(C)C4=CC(=O)[C@]3(O)[C@@H]2C1` [Example 23, (2S,4aS,6aS,6bR,8aR,12aS,14aS,14bR)-11-cyano-N-(1,3-dimethoxypropan-2-yl)-14a-hydroxy-2,4a,6a,6b,9,9,12a-heptamethyl-10,14-dioxo-1,2,3,4,4a,5,6,6a,6b,7,8,8a,9,10,12a,14,14a,14b-octadecahydropicene-2-carboxamide], which IC50 is on record?
A: Its IC50 is 10.8 nM.

Q: Which IC50 does the source give for `COC(=O)[C@@H]1CCCN1C(=O)[C@@]1(C)CC[C@]2(C)CC[C@@]3(C)[C@]4(C)CC[C@H]5C(C)(C)C(=O)C(C#N)=C[C@]5(C)C4=CC(=O)[C@]3(O)[C@@H]2C1` [Example 24, methyl 1-{[(2S,4aS,6aS,6bR,8aR,12aS,14aS,14bR)-11-cyano-14a-hydroxy-2,4a,6a,6b,9,9,12a-heptamethyl-10,14-dioxo-1,2,3,4,4a,5,6,6a,6b,7,8,8a,9,10,12a,14,14a,14b-octadecahydropicen-2-yl]carbonyl}prolinate] here?
A: The IC50 was 16.6 nM.

Q: For `CCCNC(=O)[C@@]1(C)CC[C@]2(C)CC[C@@]3(C)[C@]4(C)CC[C@H]5C(C)(C)C(=O)C(C#N)=C[C@]5(C)C4=CC(=O)[C@]3(O)[C@@H]2C1` [Example 25, (2S,4aS,6aS,6bR,8aR,12aS,14aS,14bR)-11-cyano-14a-hydroxy-2,4a,6a,6b,9,9,12a-heptamethyl-10,14-dioxo-N-propyl-1,2,3,4,4a,5,6,6a,6b,7,8,8a,9,10,12a,14,14a,14b-octadecahydropicene-2-carboxamide], which IC50 is on record?
A: The IC50 was 7.8 nM.

Q: For `CC1(C)C(=O)C(C#N)=C[C@]2(C)C3=CC(=O)[C@]4(O)[C@@H]5C[C@@](C)(C(=O)NCc6ccco6)CC[C@]5(C)CC[C@@]4(C)[C@]3(C)CC[C@@H]12` [Example 26, (2S,4aS,6aS,6bR,8aR,12aS,14aS,14bR)-11-cyano-N-(2-furylmethyl)-14a-hydroxy-2,4a,6a,6b,9,9,12a-heptamethyl-10,14-dioxo-1,2,3,4,4a,5,6,6a,6b,7,8,8a,9,10,12a,14,14a,14b-octadecahydropicene-2-carboxamide], which IC50 is on record?
A: The IC50 was 10.2 nM.

Q: With `COc1ccc(NC(=O)[C@@]2(C)CC[C@]3(C)CC[C@@]4(C)[C@]5(C)CC[C@H]6C(C)(C)C(=O)C(C#N)=C[C@]6(C)C5=CC(=O)[C@]4(O)[C@@H]3C2)cc1` [Example 27, (2S,4aS,6aS,6bR,8aR,12aS,14aS,14bR)-11-cyano-14a-hydroxy-N-(4-methoxyphenyl)-2,4a,6a,6b,9,9,12a-heptamethyl-10,14-dioxo-1,2,3,4,4a,5,6,6a,6b,7,8,8a,9,10,12a,14,14a,14b-octadecahydropicene-2-carboxamide] as the compound, how does the IC50 read?
A: Its IC50 is 13.6 nM.

Q: `COCCN(C)C(=O)[C@@]1(C)CC[C@]2(C)CC[C@@]3(C)[C@]4(C)CC[C@H]5C(C)(C)C(=O)C(C#N)=C[C@]5(C)C4=CC(=O)[C@]3(O)[C@@H]2C1` [Example 28, (2S,4aS,6aS,6bR,8aR,12aS,14aS,14bR)-11-cyano-14a-hydroxy-N-(2-methoxyethyl)-N,2,4a,6a,6b,9,9,12a-octamethyl-10,14-dioxo-1,2,3,4,4a,5,6,6a,6b,7,8,8a,9,10,12a,14,14a,14b-octadecahydropicene-2-carboxamide] was tested. Which IC50 did it give?
A: The IC50 was 17.4 nM.

Q: Which IC50 does the source give for `CC1(C)C(=O)C(C#N)=C[C@]2(C)C3=CC(=O)[C@]4(O)[C@@H]5C[C@@](C)(C(=O)NCC#N)CC[C@]5(C)CC[C@@]4(C)[C@]3(C)CC[C@@H]12` [Example 29, (2S,4aS,6aS,6bR,8aR,12aS,14aS,14bR)-11-cyano-N-(cyanomethyl)-14a-hydroxy-2,4a,6a,6b,9,9,12a-heptamethyl-10,14-dioxo-1,2,3,4,4a,5,6,6a,6b,7,8,8a,9,10,12a,14,14a,14b-octadecahydropicene-2-carboxamide] here?
A: The IC50 was 16.9 nM.
